According to PubChem BioAssay AID296 (DTP/NCI, 2004):
“And” between values parts separate entries of the source, which are not always exact repeats. Identical values can stand only once. Records with an inconclusive call do not appear. Where a SMILES comes first, the peptide text is derived from it. The star is where a group is joined. Trt = c1ccc(C(c2ccccc2)(c2ccccc2)*)cc1; Cbz = O=C(OCc1ccccc1)*

Tested on: MX-1 breast xenograft, nude mice, tumor weight T/C
Experiment: NCI In Vivo Anticancer Drug Screen. Data for tumor model Human Mammary Carcinoma MX-1 Xenograft (intrarenal inoculation) in NU/NU Swiss (nude) mice
Details: endpoint: mean tumor weight change, higher = larger tumour
Description: The antitumor activity of compounds was measured in mice bearing transplantable tumors. Survival or tumor size were measured and the results are expressed as the measurement made in the treated group (T) divided by the measurement made in the vehicle treated control group (C). The tumor model used in this assay is Human Mammary Carcinoma MX-1 Xenograft (intrarenal inoculation) in NU/NU Swiss (nude) mice

[1] = dose: 25.0 mg/kg/injection, schedule: Q04DX003 (sc), vehicle: Klucel (hydroxypropylcellulose) (HPC)
[2] = dose: 50.0 mg/kg/injection, schedule: Q04DX003 (sc), vehicle: Klucel (hydroxypropylcellulose) (HPC)
[3] = dose: 100.0 mg/kg/injection, schedule: Q04DX003 (sc), vehicle: Klucel (hydroxypropylcellulose) (HPC)
[4] = dose: 200.0 mg/kg/injection, schedule: Q04DX003 (sc), vehicle: Klucel (hydroxypropylcellulose) (HPC)
[5] = dose: 50.0 mg/kg/injection, schedule: Q01DX010 (sc), vehicle: water
[6] = dose: 600.0 mg/kg/injection, schedule: Q04DX003 (sc), vehicle: saline with Tween-80
[7] = dose: 2400.0 mg/kg/injection, schedule: Q04DX003 (sc), vehicle: saline with Tween-80
[8] = dose: 100.0 mg/kg/injection, schedule: Q01DX010 (sc), vehicle: saline
[9] = dose: 300.0 mg/kg/injection, schedule: Q04DX003 (sc), vehicle: saline with Tween-80
[10] = dose: 1200.0 mg/kg/injection, schedule: Q04DX003 (sc), vehicle: saline with Tween-80

With COc1ccc2c(c1)CCC(c1ccccc1)=C2c1ccc(OCCN2CCCC2)cc1 the T/C [1] was 79 % of control, the T/C [2] was 72 % of control and the T/C [3] was 70 % of control. For the same molecule, the T/C [4] was 67 % of control.

O=C(O)C1CSCN1 (stereo unspecified) was tested, and the T/C [5] was 176 % of control.

In the case of CCC1(O)CC2CN(CCc3c([nH]c4ccccc34)C(C(=O)OC)(c3cc4c(cc3OC)N(C)C3C(O)(C(=O)NCCSSCCNC(=O)C5(O)C(O)C6(CC)C=CCN7CCC8(c9cc(C%10(C(=O)OC)CC%11CN(CCc%12c%10[nH]c%10ccccc%12%10)CC(O)(CC)C%11)c(OC)cc9N(C)C58)C76)C(O)C5(CC)C=CCN6CCC43C65)C2)C1 (stereo unspecified), the T/C (dose: 1.5 mg/kg/injection, schedule: Q04DX003 (sc), vehicle: suspension in saline) is reported as 101 % of control, the T/C (dose: 3.0 mg/kg/injection, schedule: Q04DX003 (sc), vehicle: suspension in saline) is reported as 102 % of control and the T/C (dose: 6.0 mg/kg/injection, schedule: Q04DX003 (sc), vehicle: suspension in saline) is reported as 70 % of control. For the same molecule, the T/C (dose: 12.0 mg/kg/injection, schedule: Q04DX003 (sc), vehicle: saline) was 1 % of control and the T/C (dose: 12.0 mg/kg/injection, schedule: Q04DX003 (sc), vehicle: suspension in saline) was 73 % of control.

In the case of Cc1cc(Br)c2nsnc2c1[N+](=O)[O-], the T/C (dose: 150.0 mg/kg/injection, schedule: Q04DX003 (ip), vehicle: saline with Tween-80) is reported as 104 % of control, the T/C (dose: 300.0 mg/kg/injection, schedule: Q04DX003 (ip), vehicle: saline with Tween-80) is reported as 74 % of control and the T/C (dose: 600.0 mg/kg/injection, schedule: Q04DX003 (ip), vehicle: saline with Tween-80) is reported as 97 % of control. For the same molecule, the T/C (dose: 1200.0 mg/kg/injection, schedule: Q04DX003 (ip), vehicle: saline with Tween-80) was 159 % of control.

For N=c1c(C(=O)OCc2ccccc2)ncc(CCl)n1O, the T/C [6] was 89 % of control and the T/C [7] was 72 % of control.

For Nc1cc(Cl)c2[nH]cnc2n1, the T/C (dose: 200.0 mg/kg/injection, schedule: Q04DX003 (sc), vehicle: water) was 47 % of control, the T/C (dose: 400.0 mg/kg/injection, schedule: Q04DX003 (sc), vehicle: water) was 42 % of control and the T/C (dose: 800.0 mg/kg/injection, schedule: Q04DX003 (sc), vehicle: water) was 55 % of control.

In the case of C(CC1CO1)C1CO1 (stereo unspecified), the T/C [8] is reported as -59 % of control and -41 % of control, the T/C (dose: 150.0 mg/kg/injection, schedule: Q04DX003 (sc), vehicle: suspension in saline) is reported as 1 % of control and 11 % of control and the T/C (dose: 300.0 mg/kg/injection, schedule: Q04DX003 (sc), vehicle: suspension in saline) is reported as 4 % of control.

With Nc1nc(N)c2cc(CNc3ccc(C(=O)NC(CC(=O)O)CC(=O)O)cc3)ccc2n1 the T/C [1] was 86 % of control, the T/C [2] was 96 % of control and the T/C [3] was 75 % of control. For the same molecule, the T/C [4] was 85 % of control.

In the case of Nc1n[n+](-c2ccc(Cl)cc2)no1, the T/C (dose: 25.0 mg/kg/injection, schedule: Q04DX003 (sc), vehicle: water) is reported as 93 % of control and the T/C (dose: 50.0 mg/kg/injection, schedule: Q04DX003 (sc), vehicle: water) is reported as 102 % of control.

With COc1cccc2c1C(=O)c1c(O)c3c(c(O)c1C2=O)C[C@@](O)(C(=O)CO)C[C@@H]3OC1CC(N)C(O)C(C)O1 (stereo partly specified) the T/C (dose: 0.25 mg/kg/injection, schedule: Q01DX010 (ip), vehicle: water) was 46 % of control, the T/C (dose: 0.5 mg/kg/injection, schedule: Q01DX010 (ip), vehicle: water) was 37 % of control and the T/C (dose: 0.75 mg/kg/injection, schedule: Q01DX010 (sc), vehicle: saline) was 159 % of control. For the same molecule, the T/C (dose: 1.0 mg/kg/injection, schedule: Q01DX010 (ip), vehicle: water) was 10 % of control, the T/C (dose: 1.5 mg/kg/injection, schedule: Q01DX010 (sc), vehicle: saline) was 84 % of control and the T/C (dose: 3.0 mg/kg/injection, schedule: Q01DX010 (sc), vehicle: saline) was 94 % of control. The T/C (dose: 4.0 mg/kg/injection, schedule: Q04DX003 (sc), vehicle: water) was 61 % of control, the T/C (dose: 6.0 mg/kg/injection, schedule: Q01DX010 (sc), vehicle: saline) was 52 % of control and the T/C (dose: 6.0 mg/kg/injection, schedule: Q01DX010 (sc), vehicle: water) was 69 % of control. The T/C (dose: 8.0 mg/kg/injection, schedule: Q04DX003 (sc), vehicle: water) was 61 % of control.

With CC(=O)[C@]1(O)Cc2c(O)c3c(c(O)c2[C@@H](OC2CC(N)C(O)C(C)O2)C1)C(=O)c1c(O)cccc1C3=O (stereo partly specified) the T/C (dose: 0.25 mg/kg/injection, schedule: Q01DX010 (sc), vehicle: saline) was 167 % of control and the T/C (dose: 0.5 mg/kg/injection, schedule: Q01DX010 (sc), vehicle: saline) was 68 % of control.

For CC(=O)OCC1OC(OC(C)=O)C(NC(=O)N(CCCl)N=O)C(OC(C)=O)C1OC(C)=O (stereo unspecified), the T/C (dose: 6.0 mg/kg/injection, schedule: Q04DX003 (sc), vehicle: Klucel (hydroxypropylcellulose) (HPC)) was 95 % of control and the T/C (dose: 24.0 mg/kg/injection, schedule: Q04DX003 (sc), vehicle: Klucel (hydroxypropylcellulose) (HPC)) was 77 % of control.

With COC(=O)C(CSC(c1ccccc1)(c1ccccc1)c1ccccc1)NC(=O)C(CC(N)=O)NC(=O)OCc1ccccc1 (stereo not drawn) (Cbz-Asn-Cys(Trt)-OMe; configuration not given here) the T/C (dose: 300.0 mg/kg/injection, schedule: Q04DX003 (sc), vehicle: distilled water + Tween-80) was 97 % of control, the T/C (dose: 600.0 mg/kg/injection, schedule: Q04DX003 (sc), vehicle: distilled water + Tween-80) was 77 % of control and the T/C (dose: 1200.0 mg/kg/injection, schedule: Q04DX003 (sc), vehicle: distilled water + Tween-80) was 78 % of control. For the same molecule, the T/C (dose: 2400.0 mg/kg/injection, schedule: Q04DX003 (sc), vehicle: distilled water + Tween-80) was 94 % of control.

In the case of CC(=Nc1ccccc1)C1=C(O)C(Cc2ccccc2)NC1=O (stereo unspecified), the T/C (dose: 150.0 mg/kg/injection, schedule: Q04DX003 (sc), vehicle: saline with Tween-80) is reported as 92 % of control, the T/C [9] is reported as 63 % of control and the T/C [6] is reported as 48 % of control. For the same molecule, the T/C [10] was 44 % of control.

With CN1CCN(CCCN2c3ccccc3Sc3ccc(C(F)(F)F)cc32)CC1 the T/C (dose: 25.0 mg/kg/injection, schedule: Q01DX010 (sc), vehicle: saline) was 107 % of control, the T/C (dose: 50.0 mg/kg/injection, schedule: Q01DX010 (sc), vehicle: saline) was 61 % of control and 73 % of control and the T/C [8] was 31 % of control and 52 % of control. The T/C (dose: 200.0 mg/kg/injection, schedule: Q01DX010 (sc), vehicle: saline) was 32 % of control.

For CCC1CCCCN1C(=S)N/N=C(\C)c1ccccn1 (stereo unspecified), the T/C (dose: 18.75 mg/kg/injection, schedule: Q04DX003 (sc), vehicle: saline with Tween-80) was 53 % of control, the T/C (dose: 37.5 mg/kg/injection, schedule: Q04DX003 (sc), vehicle: saline with Tween-80) was 97 % of control and the T/C (dose: 75.0 mg/kg/injection, schedule: Q04DX003 (sc), vehicle: saline with Tween-80) was 82 % of control.

CCCCCCCC(=O)N/N=C(\CO)[C@]1(O)Cc2c(O)c3c(c(O)c2[C@@H](OC2CC(N)C(O)C(C)O2)C1)C(=O)c1c(OC)cccc1C3=O (stereo partly specified) was tested, and the T/C (dose: 25.0 mg/kg/injection, schedule: Q01DX010 (sc), vehicle: water) was 227 % of control, the T/C [5] was 230 % of control and the T/C (dose: 100.0 mg/kg/injection, schedule: Q01DX010 (sc), vehicle: water) was 370 % of control.

With O=[N+]([O-])c1ccc([I+]c2ccccc2)cc1 the T/C (dose: 75.0 mg/kg/injection, schedule: Q04DX003 (ip), vehicle: Klucel (hydroxypropylcellulose) (HPC)) was 92 % of control.

With CCOC(=O)c1[nH]c2cccc3c2c1CC(Br)C3=O (stereo unspecified) the T/C [9] was 86 % of control, the T/C [6] was 100 % of control and the T/C [10] was 73 % of control. For the same molecule, the T/C [7] was 94 % of control.

With Cn1ccc(=Nc2ccc(NC(=O)c3ccc(N=c4ccn(C)c5ccc([N+](=O)[O-])cc45)cc3[N+](=O)[O-])cc2)cc1 the T/C (dose: 300.0 mg/kg/injection, schedule: Q04DX003 (sc), vehicle: saline + Tween-80 + alcohol) was 123 % of control, the T/C (dose: 1200.0 mg/kg/injection, schedule: Q04DX003 (sc), vehicle: saline + Tween-80 + alcohol) was 117 % of control and the T/C (dose: 2400.0 mg/kg/injection, schedule: Q04DX003 (sc), vehicle: saline + Tween-80 + alcohol) was 69 % of control.

CCc1ccc(C2=C(O)C(=O)C(c3ccccc3)=C(O)C2=O)cc1 was tested, and the T/C (dose: 150.0 mg/kg/injection, schedule: Q04DX003 (sc), vehicle: Klucel (hydroxypropylcellulose) (HPC)) was 100 % of control, the T/C (dose: 300.0 mg/kg/injection, schedule: Q04DX003 (sc), vehicle: Klucel (hydroxypropylcellulose) (HPC)) was 100 % of control and the T/C (dose: 600.0 mg/kg/injection, schedule: Q04DX003 (sc), vehicle: Klucel (hydroxypropylcellulose) (HPC)) was 77 % of control.
